PubChem BioAssay AID608 (Sanford-Burnham Center for Chemical Genomics, 2007)
The source made the active and inactive calls. No rule for the calls is given here.

What follows are compounds tested against Peptidyl-prolyl cis-trans isomerase FKBP1A (Homo sapiens) (UniProt P62942) (assay: FKBP12 binders, biophysical, NMR detection (AID 608)). Settings: NMR binding, purified FKBP12.
Sequence of Peptidyl-prolyl cis-trans isomerase FKBP1A (Homo sapiens) (P62942 whole entry, looked up): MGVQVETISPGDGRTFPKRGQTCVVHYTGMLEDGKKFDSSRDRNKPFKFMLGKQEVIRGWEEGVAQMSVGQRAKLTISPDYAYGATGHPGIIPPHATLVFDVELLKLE
`CC1=[N+]([O-])C2(N)CCc3c(no[n+]3[O-])C2(O)C1` (configuration not stated) was tested, and the Kd was > 4 mM (inactive). For `CC(=O)Nc1nc(-c2cccs2)cs1`, the Kd was > 4 mM (inactive). For `Cc1nc(-c2cccc(N)c2)cs1`, the Kd was > 4 mM (inactive). `COc1ccc(C(=O)CC(=O)O)c2c1C=CC(C)(C)O2` was tested, and the Kd was > 4 mM (inactive). `ON=c1ccc2nc3ccccc3nc2cc1` was tested, and the Kd was > 4 mM (inactive). With `Nc1cccc2nsnc12` the Kd was > 4 mM (inactive). For `Cc1nnc(Nc2ccc(S(N)(=O)=O)cc2)[nH]c1=O`, the Kd was > 4 mM (inactive). `O=C(O)Cn1nnnc1-c1ccc(F)cc1` was tested, and the Kd was > 4 mM (inactive). In the case of `Cc1ccccc1NC(=O)C1CC(=O)N=C(N)S1` (configuration not stated), the Kd is reported as > 4 mM (inactive). In the case of `Cc1cccnc1NC1=NCC(C)S1` (configuration not stated), the Kd is reported as > 4 mM (inactive). `Cn1c(O)c(C2=NC(=S)NC2=O)c2ccccc21` was tested, and the Kd was > 4 mM (inactive). For `O=C(NCc1cccc(Cl)c1)c1cnccn1`, the Kd was > 4 mM (inactive). `CCOc1ccc(NS(=O)(=O)N2CCCCC2)cc1` was tested, and the Kd was “inactive”. In the case of `Cc1cc(NC(=O)CS(=O)(=O)c2ccccc2)no1`, the Kd is reported as > 4 mM (inactive). For `OCc1ccc(-c2ccccn2)s1`, the Kd was > 4 mM (inactive). `O=C(Nc1ccccc1)C(=O)NC1CC1` was tested, and the Kd was > 4 mM (inactive). With `CC(=O)NC12CC3CC(C)(C1)CC(NC(C)=O)(C3)C2` the Kd was > 4 mM (inactive). `CN1CCCCC1c1ccc(-c2cccnc2)nc1` (configuration not stated) was tested, and the Kd was > 4 mM (inactive). In the case of `Cc1cccc(NC(=O)c2ccc(=O)[nH]n2)c1`, the Kd is reported as > 4 mM (inactive). With `Nc1ccc(N2CCOCC2)cc1` the Kd was > 4 mM (inactive). With `C/C=C(/C)C(=O)O[C@H]1CC[C@@]2(C)[C@@H]3CC[C@H]4[C@]5(O)C[C@H](O)[C@@]6(O)[C@@H](CN7C[C@@H](C)CC[C@H]7[C@@]6(C)O)[C@]5(O)C[C@@]42OC13O` the Kd was > 4 mM (inactive). In the case of `Clc1ccc2c(N3CCNCC3)ccnc2c1`, the Kd is reported as > 4 mM (inactive). With `O=C(c1ccccc1)c1ccccc1C(=O)N1CCCC1` the Kd was > 4 mM (inactive). For `CN(C)/C=N/S(=O)(=O)c1ccccc1`, the Kd was > 4 mM (inactive). For `C#CCCCCCCCCCCCc1ccco1`, the Kd was > 4 mM (inactive). In the case of `Clc1ccc(-n2ccnc2)nn1`, the Kd is reported as > 4 mM (inactive). For `Cc1nn2c(=O)nc3sc4c(c3c2[nH]c1=O)CCCC4`, the Kd was > 4 mM (inactive). With `COC(=O)C1CSCC1=O` (configuration not stated) the Kd was > 4 mM (inactive). `CC(C)(C)c1cc(N)n[nH]1` was tested, and the Kd was > 4 mM (inactive). For `COCCn1cnc2cc(C)c(C)cc21`, the Kd was > 4 mM (inactive). In the case of `O=C(O)CCC(=O)Nc1ccccc1F`, the Kd is reported as > 4 mM (inactive). For `CC(=O)N1CCN(C2CCSC2)CC1` (configuration not stated), the Kd was > 4 mM (inactive). `CC(=O)O[C@H]1CCC2(C)C3=C(CCC2C1(C)C)[C@]1(C)CCC(C(C)CCC=C(C)C)[C@@]1(C)CC3` (some centres not stated) was tested, and the Kd was > 4 mM (inactive). For `CN(C)C(=O)C12CCC(C)(C(=O)O1)C2(C)C` (configuration not stated), the Kd was > 4 mM (inactive). Compound `COc1ccc(CCC(=O)N2CCOCC2)cc1` has a Kd of 0.204 mM. For `Cn1c(=O)n(CC(=O)Nc2cccnc2)c2ccccc21`, the Kd was > 4 mM (inactive). In the case of `Oc1ccccc1N1CCOCC1`, the Kd is reported as > 4 mM (inactive). With `O=c1[nH]c2ccccc2c(=O)n1CCCO` the Kd was > 4 mM (inactive). In the case of `O=C1CCCC(=O)N1Cc1ccco1`, the Kd is reported as > 4 mM (inactive). In the case of `OC1CCN(c2nccc(C(F)(F)F)n2)CC1`, the Kd is reported as > 4 mM (inactive). In the case of `CC(=O)Nc1cccc(-c2n[nH]c(=S)n2C)c1`, the Kd is reported as > 4 mM (inactive). For `CN(C)c1ccc(N2C(=O)CCC2=O)cc1`, the Kd was > 4 mM (inactive). In the case of `CCN1CCN(c2ncnc3c2nnn3C)CC1`, the Kd is reported as > 4 mM (inactive). `Cc1nn2c(-c3ccco3)nnc2c2ccccc12` was tested, and the Kd was > 4 mM (inactive). For `CSc1ccccc1C(=O)N1CCOCC1`, the Kd was > 4 mM (inactive). In the case of `O=C(Cc1cccs1)Nc1ccccn1`, the Kd is reported as > 4 mM (inactive). For `COC(=O)/C(=C1\OC(=O)C(c2ccccc2)C1=O)c1ccccc1` (configuration not stated), the Kd was > 4 mM (inactive). In the case of `O=C(O)c1cc(=O)[nH]c2ccccc12`, the Kd is reported as > 4 mM (inactive). With `CN1CCC[C@H]1c1cccnc1` the Kd was > 4 mM (inactive). `COc1ccccc1NC(=O)/C=N/O` was tested, and the Kd was > 4 mM (inactive). In the case of `COc1cc(/C=C/C(=O)O)ccc1O`, the Kd is reported as > 4 mM (inactive). `CSc1nc2nccc(N)n2n1` was tested, and the Kd was > 4 mM (inactive). For `CC(=O)N1CCn2c3c(c(=O)c4cc(C)ccc42)CCC31` (configuration not stated), the Kd was > 4 mM (inactive). For `Nc1ccc(-c2cn3c(n2)SCC3)cc1`, the Kd was > 4 mM (inactive). In the case of `O=S1(=O)CCC(N2CCCCC2)C1` (configuration not stated), the Kd is reported as > 4 mM (inactive). With `COc1ccccc1NC(=O)c1ccc(C)s1` the Kd was > 4 mM (inactive). In the case of `CCCn1c(C)cc(=O)[nH]c1=O`, the Kd is reported as > 4 mM (inactive). `O=C(O)CC1Sc2ccccc2NC1=O` (configuration not stated) was tested, and the Kd was > 4 mM (inactive). `O=C(Nc1nnc(-c2cccnc2)o1)c1ccccc1F` was tested, and the Kd was > 4 mM (inactive). For `CC(=O)NC1=NN(c2ccccc2)C(=O)C1`, the Kd was > 4 mM (inactive). For `Cc1nc2ccc(C(=O)O)cc2nc1C`, the Kd was > 4 mM (inactive). In the case of `CNC(=S)N1CCN(C(=O)c2ccco2)CC1`, the Kd is reported as > 4 mM (inactive). `O=C(NCCO)c1cc2ccccc2c(=O)s1` was tested, and the Kd was > 4 mM (inactive). For `O=C1N=c2ccccc2=C1c1sc(=S)[nH]c1O`, the Kd was > 4 mM (inactive). `CCOc1ccc(C)cc1S(=O)(=O)n1ccnc1` was tested, and the Kd was > 4 mM (inactive). With `FC(F)(F)c1nnc2ccc(N3CCOCC3)nn12` the Kd was > 4 mM (inactive). For `CSc1nnc2c(n1)OC(C)=Nc1ccccc1-2`, the Kd was > 4 mM (inactive). `COC(=O)[C@]1(C)CC[C@]2(C)CC[C@]3(C)C4=CCc5c(cc(O)c(O)c5C)[C@]4(C)CC[C@@]3(C)C2C1` (some centres not stated) was tested, and the Kd was > 4 mM (inactive). `CN(C)C(=O)CSc1nc(N)cc(=O)[nH]1` was tested, and the Kd was > 4 mM (inactive). For `Cc1ccc(S(=O)(=O)/N=C2\NC(=O)CS2)cc1`, the Kd was > 4 mM (inactive). For `Cc1ccccc1OCC(=O)O`, the Kd was > 4 mM (inactive). In the case of `CC(=O)O[C@]1(C)CC[C@@]23CC1C(C)(C)[C@@H]2CC[C@H]3C`, the Kd is reported as > 4 mM (inactive). `CC(=O)O[C@H]1CC[C@@]2(C)C(CC[C@]3(C)C2CC=C2C4CC(C)(C)CC[C@]4(C)CC[C@]23C)C1(C)C` (some centres not stated) was tested, and the Kd was > 4 mM (inactive). `CCC(=O)NC(=S)Nc1ccc(C(N)=O)cc1` was tested, and the Kd was > 4 mM (inactive). For `COC(=O)c1scc(C)c1N`, the Kd was > 4 mM (inactive). In the case of `CC(=O)Nc1cccc(N2C(=O)CCC2=O)c1`, the Kd is reported as > 4 mM (inactive). In the case of `Cc1cc(=O)[nH]c(N)n1`, the Kd is reported as > 4 mM (inactive). With `NC(=O)C1CCN(c2ccc(Cl)nn2)CC1` the Kd was > 4 mM (inactive). For `O=C(NCc1ccc2c(c1)OCO2)c1cccs1`, the Kd was > 4 mM (inactive). For `NC(=O)c1oc2ccccc2c1N`, the Kd was > 4 mM (inactive). For `COC1=CC(=O)C=C(OC)C1=O`, the Kd was > 4 mM (inactive). In the case of `Cc1cc(=O)[nH]c(NCc2cccnc2)n1`, the Kd is reported as > 4 mM (inactive). For `CN1CC(=O)N=C1N`, the Kd was > 4 mM (inactive). In the case of `O=C(O)C12CC3CC(CC(O)(C3)C1)C2`, the Kd is reported as > 4 mM (inactive). `CC(C1OC(C)(C)C(O)C1O)[C@@H]1CC[C@]2(C)C3=CCC4C(C)(C)C(=O)CC[C@]4(C)C3CC[C@@]12C` (some centres not stated) was tested, and the Kd was > 4 mM (inactive). In the case of `NC(=O)C(=O)Nc1nc(-c2ccccc2)cs1`, the Kd is reported as > 4 mM (inactive). With `COc1ccc2c(c1)OC[C@@H](Cc1ccc(OC)c(OC)c1)[C@@H]2O` the Kd was > 4 mM (inactive). With `Clc1ccccc1OCc1nc(-c2ccccn2)no1` the Kd was > 4 mM (inactive). With `COCc1c(CN)cnc(C)c1N` the Kd was > 4 mM (inactive). For `COc1ccc(-c2nc3nc(C)cc(C)n3n2)cc1`, the Kd was > 4 mM (inactive). In the case of `COc1cc(OC)c(OC)cc1C=O`, the Kd is reported as > 4 mM (inactive). With `Cc1ncc(CC(=O)O)s1` the Kd was > 4 mM (inactive). For `CSc1nc(C)cc(Oc2ccc(=O)n(C)n2)n1`, the Kd was > 4 mM (inactive). For `COC(=O)c1c(C)cc(OC(=O)c2c(C)cc(O)c(C=O)c2O)c(C)c1O`, the Kd was > 4 mM (inactive). In the case of `CN(C)S(=O)(=O)c1ccc(NC=O)cc1`, the Kd is reported as > 4 mM (inactive). `CC(=O)Oc1ccc2c(c1C(C)C)CCC1C(C)(C)CCC[C@]21C` (some centres not stated) was tested, and the Kd was > 4 mM (inactive). `NC(CCC(=O)Nc1ccc([N+](=O)[O-])cc1)C(=O)O` (configuration not stated) was tested, and the Kd was > 4 mM (inactive). For `CC1(C)NC(=O)N(CN2CCOCC2)C1=O`, the Kd was > 4 mM (inactive). With `Nc1ccc(OCc2ccccc2)cc1` the Kd was > 4 mM (inactive). `Cc1nn(-c2ccccc2)nc1CO` was tested, and the Kd was > 4 mM (inactive). In the case of `C=C(C)C1Cc2c(ccc(C(=O)O)c2O)O1` (configuration not stated), the Kd is reported as > 4 mM (inactive). In the case of `O=S(=O)(Nc1cc(Cl)cc(Cl)c1)N1CCOCC1`, the Kd is reported as “inactive”. `C=CCCCCCCCCCCCC(O)CC(O)COC(C)=O` (configuration not stated) (tested in a mixture with another compound) was tested, and the Kd was > 4 mM (inactive). For `Cc1ccc2[nH]cc(CCN)c2c1`, the Kd was > 4 mM (inactive). `C(=N\c1nccs1)/c1cccnc1` was tested, and the Kd was > 4 mM (inactive). `COc1cccc(NC(=O)c2cccs2)c1` gave a Kd of 0.44 mM. With `O=C(O)c1ccccc1SCC(=O)N1CCOCC1` the Kd was > 4 mM (inactive). For `CC1(C)C(=O)[C@@H]2O[C@@H]2[C@@]2(C)C1C[C@@H](O)[C@]1(C)C2CC[C@@]2(C)[C@H](c3ccoc3)OC(=O)C3OC321` (some centres not stated), the Kd was > 4 mM (inactive). With `NC(=O)C1CCN(C2CC(=O)NC2=O)CC1` (configuration not stated) the Kd was > 4 mM (inactive). For `CC1=NN(c2ccc(N)cc2)C(=O)C1`, the Kd was > 4 mM (inactive). With `Cc1cc(=O)oc2c1c(C)nn2CN1CCN(C)CC1` the Kd was > 4 mM (inactive). `O=C(O)CCC(=O)Nc1nccs1` was tested, and the Kd was > 4 mM (inactive). With `CS(=O)(=O)N1CCN(C(=O)c2ccccc2)C1` the Kd was > 4 mM (inactive). In the case of `Cn1cnc2c(cnn2-c2ccccc2)c1=O`, the Kd is reported as > 4 mM (inactive). In the case of `CC1=CC2C(C(C)C)CCC(C)(O)C2CC1` (configuration not stated), the Kd is reported as > 4 mM (inactive). With `O=C(/C=C/c1ccco1)NC1=NCCS1` the Kd was > 4 mM (inactive). In the case of `CC(=O)c1cccc(NC2=NCC(C)(C)S2)c1`, the Kd is reported as > 4 mM (inactive). With `CNc1nc(C)nc(-n2nc(C)cc2C)n1` the Kd was > 4 mM (inactive). In the case of `Nc1ccc(O)cn1`, the Kd is reported as > 4 mM (inactive). With `Nc1ccc2c(c1)C(=O)OC2` the Kd was > 4 mM (inactive). For `Cc1nn(C)c(Cl)c1S(=O)(=O)N1CCOCC1`, the Kd was > 4 mM (inactive). For `Cc1cc(=O)n2[nH]c(C)cc2n1`, the Kd was > 4 mM (inactive).
